SMILES strings stand for the structures.

The source of these data is BindingDB's records for doi:10.1021/jm0208119 (Westfälische Wilhelms-Universität Münster, 2002).

The experiment has as its target histone deacetylase HD-1, RPD3 homologue (Zea mays). Kind of experiment: Inhibition of in vitro enzyme activity measured in a highly purified maize Histone deacetylase 1 preparation.

For orientation: IC50 means the concentration that gives 50% inhibition. Low readings indicate higher potency, high ones lower potency. `O=C(CCCCCCC(=O)N[C@@H](Cc1ccccc1)C(=O)NCCc1ccccc1)NO` [Octanedioic acid hydroxyamide ((S)-1-phenethylcarbamoyl-2-phenyl-ethyl)-amide] displayed an IC50 of 25 nM.
Take `O=C(CCCCCCC(=O)N[C@@H](Cc1ccccc1)C(=O)NCc1ccccc1)NO` [Octanedioic acid ((S)-1-benzylcarbamoyl-2-phenyl-ethyl)-amide hydroxyamide]: it took 40 nM to reach half-maximal inhibition (IC50).
